From patent publication US20250255847A1, “[…]s: Novel Drugs for Triple Negative Breast Cancer” (SIMMARON RSEARCH INC, priority 2024, published 2025)

Test system: TNBC tumor parenchyma
Assay: Histology, IHC and TUNEL of PDX tumor tissue
Type: in vivo, mouse
Conditions: for H&E staining: size and color intensities of tumor cells: 2 mg/Kg Bwt i.p.; for apoptosis in TNBC tumor (TUNEL staining): FIG. 14; for Ki-67 immunoreactivity in tumor parenchyma: p<0.0001 vs control
Experimental: FIG. 13 illustrates an embodiment of the present invention and illustrates the effects of SIM-1 and SIM-2 on the growth arrest of TNBC tumors. […] The higher magnification images were given below. (B) Area of 50 randomly selected cells (10 different images from n=5 mice/group) from three different groups were measured using polygon tool of ImageJ software and then the scatter histogram analysis was performed using GraphPad Prism 10 statistical software package. The significance of mean between groups (***p<0.001 versus control) was calculated by one-way ANOVA analysis (effector: treatment). (C) IHC staining of cell growth marker Ki-67 in vehicle-, SIM-1-, and SIM-2-treated tumors represents the cell growth property of tumor cells. […] Both hematoxylin-ir nuclei (total cells) and Ki-67-ir cells were counted in n=15 images per group, converted in percent scale, and then plotted as scatter histogram. ****p<0.0001 vs. control as derived by one-way ANOVA. (E) IHC staining of cell proliferation marker PCNA in three different groups. (F) Scatter histogram analysis of […] counted from n=15 images per group and then plotted as percent scale. […] (G) A gene array of 84 genes in a validated human breast cancer gene array (RT^2 Profiler™ PCR array; Cat #PAHS-131ZA; Qiagen) was conducted in cDNA samples extracted from TNBC tumors of vehicle, SIM-1- and SIM-2-treated (n=3) groups. The resultant gene expressions were converted in log scale and then compared with the vehicle in (G) SIM-1 and (H) SIM-2 treated groups as shown in scatter plots. […] (I) Validation of gene expressions of CCND1, CCND2, CCNE1, CDK2 genes were performed by real-time PCR analysis. (J) Upregulations of CDKN1A, and CDKN2A in SIM-1- and SIM-2-treated groups were validated by real-time PCR analyses. were Significance of mean calculated by one-way ANOVA resulted […] versus respective vehicle-groups. The results are confirmed after three different experiments.
(A) TUNEL staining to monitor apoptosis of tumor cells among all groups followed by (B) counting of TUNEL-ir cells from n=15 images per group and then plotting a scatter histogram analysis. ****p<0.0001 vs. control as derived by one-way ANOVA. (C) A protein array of 35 different apoptosis-related proteins (Human apoptosis array; Cat #ARY009; R&D Systems) was conducted in the tumor tissue extracts of three different groups. Red, purple, and green squares represent the expressions of Bad, Bax, and Cytochrome C proteins respectively. Black enclosures represent the positive controls. (D) Heatmap analysis summarizes the expressions of breast cancer 84 validated breast cancer-associated genes (RT^2 Profiler™ PCR array; Cat #PAHS-131ZA; Qiagen). These genes critically regulate the growth and apoptosis of breast cancer cells. The details of the genes can be found here (geneglobe.qiagen.com/us/product-groups/rt2-profiler-pcr-arravs/PAHS-131Z). Scatter plot analyses in FIG. 13G and FIG. 13H was performed to compare the relative expressions of apoptotic genes and growth suppressive genes between the vehicle- and SIM-1-treated as well as the vehicle- and SIM-2-treated groups.
Immunohistochemical (IHC) analyses. Tumor tissues were embedded in paraffin, cut at a thickness of 5 μm in Leica microtome, attached to a charged slide, dried in a dry bath at 37° C. for at least 48 hrs., and then progressed for IHC analysis. The IHC analysis was performed where, briefly, sections were deparaffinized by xylene and rehydrated by ethanol gradient (100%>70%>50%>20%; v/v) followed by complete rehydration by water. […]

SMILES | H&E staining: size and color intensities of tumor cells | apoptosis in TNBC tumor (TUNEL staining) | Ki-67 immunoreactivity in tumor parenchyma
CCOC(=O)c1c(NC(C)=O)sc2c(Cl)c(/C=N/O)ccc12 [SIM-2, ethyl 2-acetamido-7-chloro-6-(hydroxyiminomethyl)-1-benzothiophene-3-carboxylate] | strongly reduced the size and color intensities of cells | weakly induced apoptosis | strong reduction
O=C(O)CCC(=O)NCc1csc2ccc(Cl)cc12 [SIM-1, 4-[(5-chloro-1-benzothiophen-3-yl)methylamino]-4-oxobutanoic acid] | strongly reduced the size and color intensities of cells | weakly induced apoptosis | strong reduction
